Data reported in PubChem BioAssay AID1671353.

Molecular target: Serine/threonine-protein kinase pim-1 (Homo sapiens) (UniProt P11309)
Assay: inhibition of PIM1 peptide phosphorylation – biochemical, Z'-LYTE FRET, direct format, recombinant human, dose response (AID 1671353)

IC50: 1970 nM
SMILES: Brc1c(Br)c(Br)c2n[nH]nc2c1Br
